Experimental data taken from ChEMBL document CHEMBL1201862, “PubChem BioAssay data set” (2004).
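Each compound was tested at five concentrations against cells in 96-well plates for 48 hours. At the GI50, growth is halved.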 Calls of active or inactive are those of the source. No stated cut-off is given here; in the data, active = GI50 up to about 1.1 µM and inactive = higher.

Tests used:
Experiment in all cases: NCI anticancer screen, dose series, 48 h
A549 = tested on: A549
ACHN = tested on: ACHN
CAKI-1 = tested on: CAKI-1
COLO 205 = tested on: COLO 205
HCC 2998 = tested on: HCC 2998
HOP-92 = tested on: HOP-92
K562 = tested on: K562
Malme-3M = tested on: Malme-3M
OVCAR-8 = tested on: OVCAR-8
RXF 393 = tested on: RXF 393
SF-268 = tested on: SF-268
SF-539 = tested on: SF-539
SK-MEL-5 = tested on: SK-MEL-5
SNB-75 = tested on: SNB-75
TK-10 = tested on: TK-10
UACC-257 = tested on: UACC-257
UACC-62 = tested on: UACC-62
MOLT-4 = tested on: MOLT-4
OVCAR-5 = tested on: OVCAR-5

| SMILES | GI50 (A549) | GI50 (ACHN) | GI50 (CAKI-1) | GI50 (COLO 205) | GI50 (HCC 2998) | GI50 (HOP-92) | GI50 (K562) | GI50 (Malme-3M) | GI50 (OVCAR-8) | GI50 (RXF 393) | GI50 (SF-268) | GI50 (SF-539) | GI50 (SK-MEL-5) | GI50 (SNB-75) | GI50 (TK-10) | GI50 (UACC-257) | GI50 (UACC-62) | GI50 (MOLT-4) | GI50 (OVCAR-5) |
| --- | --- | --- | --- | --- | --- | --- | --- | --- | --- | --- | --- | --- | --- | --- | --- | --- | --- | --- | --- |
| c1ccc(C(C2=Nc3cccc4cccc(c34)N2)c2ccccc2)cc1 | 37.2 µM (inactive) | 19.3 µM (inactive) | 22.6 µM (inactive) | 18.9 µM (inactive) | 20.6 µM (inactive) | 18.7 µM (inactive) | 19 µM (inactive) | 27.8 µM (inactive) | 30.7 µM (inactive) | 27.3 µM (inactive) | 24.4 µM (inactive) | 17.2 µM (inactive) | 20.5 µM (inactive) | 22.3 µM (inactive) | 47.9 µM (inactive) | 24.5 µM (inactive) | 17.5 µM (inactive) |  |  |
| CN(C)C(=S)N/N=C\C(=N/NC(=S)N(C)C)c1ccccc1 | 5.31 µM (inactive) | 3.72 µM (inactive) | 7.24 µM (inactive) | 4.03 µM (inactive) | 7.53 µM (inactive) | 3.91 µM (inactive) | 4.68 µM (inactive) |  | 4.82 µM (inactive) | 7.36 µM (inactive) | 4.14 µM (inactive) | 10.1 µM (inactive) | 9.84 µM (inactive) | 13.4 µM (inactive) | 6.87 µM (inactive) | > 23.4 µM (inactive) | 8.41 µM (inactive) | > 100 µM (inactive) | > 30.9 µM (inactive) |
| COc1cc(C2c3cc4c(cc3OC(NN=C(C)C)C2C)OCO4)cc(OC)c1O (stereo not given) | 22.9 µM (inactive) |  | 61.5 µM (inactive) | 30.9 µM (inactive) | 14.4 µM (inactive) | 62.4 µM (inactive) |  | 8.75 µM (inactive) | 27.5 µM (inactive) | 24.7 µM (inactive) | 31.5 µM (inactive) | 21.2 µM (inactive) | 10.8 µM (inactive) | 3.66 µM (inactive) | 25.4 µM (inactive) | 89.3 µM (inactive) | 19.2 µM (inactive) |  | 64.4 µM (inactive) |
| COc1ccc(C2SCC(=O)N2NC(=O)C(C)Oc2ccccc2Cl)cc1 (stereo not given) | 35.5 µM (inactive) | 38.5 µM (inactive) | > 100 µM (inactive) | 26.5 µM (inactive) | > 100 µM (inactive) | 23.7 µM (inactive) | 47.4 µM (inactive) |  | 61.1 µM (inactive) | 27.7 µM (inactive) | > 100 µM (inactive) | > 100 µM (inactive) | 24.5 µM (inactive) | 56.6 µM (inactive) | 63.2 µM (inactive) | > 100 µM (inactive) | 46 µM (inactive) | 27 µM (inactive) | > 100 µM (inactive) |
| O=C(O)C1OC1C(=O)O (stereo not given) | > 100 µM (inactive) | > 100 µM (inactive) | > 100 µM (inactive) | > 100 µM (inactive) | > 100 µM (inactive) | > 100 µM (inactive) | > 100 µM (inactive) | > 100 µM (inactive) | > 100 µM (inactive) | > 100 µM (inactive) | > 100 µM (inactive) |  | > 100 µM (inactive) | > 100 µM (inactive) | > 100 µM (inactive) | > 100 µM (inactive) | > 100 µM (inactive) |  | > 100 µM (inactive) |
| C=C1C(=O)O[C@@H]2C=C(C)C3=CC(=O)[C@](C)(C[C@H](OC(=O)/C(C)=C\C)[C@@H]12)O3 | 1.73 µM (inactive) | 0.489 µM (active) | 0.509 µM (active) | 0.51 µM (active) | 1.51 µM (inactive) | 0.671 µM (active) | 0.282 µM (active) |  | 0.51 µM (active) | 0.29 µM (active) | 3.12 µM (inactive) | 2.43 µM (inactive) | 0.542 µM (active) | 13.5 µM (inactive) |  | 2.14 µM (inactive) | 0.508 µM (active) | 0.273 µM (active) | 1.97 µM (inactive) |
| Cc1cccc(C)c1NC(=O)C(=O)CC(=O)c1sc(Nc2c(C)cccc2C)nc1C | > 100 µM (inactive) | > 100 µM (inactive) | > 100 µM (inactive) | > 100 µM (inactive) | > 100 µM (inactive) | > 100 µM (inactive) | > 100 µM (inactive) |  | > 100 µM (inactive) | 61.1 µM (inactive) | > 100 µM (inactive) | > 100 µM (inactive) |  | 22.7 µM (inactive) | > 100 µM (inactive) | > 100 µM (inactive) | > 100 µM (inactive) | > 100 µM (inactive) | > 100 µM (inactive) |
| CCOc1ccccc1Nc1ccc(N)cc1S(=O)(=O)O | > 100 µM (inactive) | > 100 µM (inactive) | > 100 µM (inactive) |  | > 100 µM (inactive) | > 100 µM (inactive) | > 100 µM (inactive) | > 100 µM (inactive) |  | > 100 µM (inactive) | > 100 µM (inactive) |  | > 100 µM (inactive) | > 100 µM (inactive) | > 100 µM (inactive) | > 100 µM (inactive) | > 100 µM (inactive) | > 100 µM (inactive) | > 100 µM (inactive) |
| O=C1c2ccccc2C(=O)c2c(NCCNC(=O)C3CCCN3)ccc(NCCNC(=O)C3CCCN3)c21 (stereo not given) | > 100 µM (inactive) | 53.7 µM (inactive) | > 100 µM (inactive) | 24.5 µM (inactive) | 35.9 µM (inactive) | 41 µM (inactive) | 19.2 µM (inactive) | 95.9 µM (inactive) | 33.9 µM (inactive) |  | 34.1 µM (inactive) | 44.6 µM (inactive) | 88.5 µM (inactive) | 53.3 µM (inactive) | > 100 µM (inactive) | > 100 µM (inactive) | 38.7 µM (inactive) | 22.1 µM (inactive) | 51.4 µM (inactive) |
| O=C(CC(C(=O)c1ccsc1)c1ccccc1)c1cccs1 (stereo not given) |  | 67.6 µM (inactive) | > 100 µM (inactive) | > 100 µM (inactive) | 85.3 µM (inactive) | > 100 µM (inactive) | > 100 µM (inactive) |  | 58.1 µM (inactive) | 59.3 µM (inactive) | > 100 µM (inactive) | > 100 µM (inactive) | 43.2 µM (inactive) | 72.6 µM (inactive) | > 100 µM (inactive) | 61 µM (inactive) | 24.8 µM (inactive) | 49.9 µM (inactive) | > 100 µM (inactive) |
| CC(C)CCNC(=O)c1ccc(CNC(=O)/C=C/c2ccc3ccccc3c2)cc1 | > 100 µM (inactive) | > 100 µM (inactive) | > 100 µM (inactive) | > 100 µM (inactive) | > 100 µM (inactive) | > 100 µM (inactive) | > 100 µM (inactive) |  | > 100 µM (inactive) | > 100 µM (inactive) | > 100 µM (inactive) |  | > 100 µM (inactive) | > 100 µM (inactive) |  | > 100 µM (inactive) | > 100 µM (inactive) | > 100 µM (inactive) | > 100 µM (inactive) |
| Cn1c2ccc(Cl)cc2c2ccc3c(c21)C(=O)C=CC3=O | > 10 µM (inactive) | > 10 µM (inactive) | > 10 µM (inactive) | > 10 µM (inactive) | > 10 µM (inactive) | > 10 µM (inactive) | 9.14 µM (inactive) | > 10 µM (inactive) | > 10 µM (inactive) |  | > 10 µM (inactive) | > 10 µM (inactive) | > 10 µM (inactive) | > 10 µM (inactive) | > 10 µM (inactive) | > 10 µM (inactive) | > 10 µM (inactive) | 6.44 µM (inactive) | > 10 µM (inactive) |
